Assay results as given in patent publication US20260265233A1, “BENZOTHIOPHENE DERIVATIVES AS RXFP1 AGONISTS” (BRISTOL-MYERS SQUIBB COMPANY, priority 2021, published 2026).

Target: T1, human RXFP1 (Homo sapiens, UniProt Q9HBX9)
T1 construct: expressed in transfected cells
T1 sequence (Q9HBX9 1-757): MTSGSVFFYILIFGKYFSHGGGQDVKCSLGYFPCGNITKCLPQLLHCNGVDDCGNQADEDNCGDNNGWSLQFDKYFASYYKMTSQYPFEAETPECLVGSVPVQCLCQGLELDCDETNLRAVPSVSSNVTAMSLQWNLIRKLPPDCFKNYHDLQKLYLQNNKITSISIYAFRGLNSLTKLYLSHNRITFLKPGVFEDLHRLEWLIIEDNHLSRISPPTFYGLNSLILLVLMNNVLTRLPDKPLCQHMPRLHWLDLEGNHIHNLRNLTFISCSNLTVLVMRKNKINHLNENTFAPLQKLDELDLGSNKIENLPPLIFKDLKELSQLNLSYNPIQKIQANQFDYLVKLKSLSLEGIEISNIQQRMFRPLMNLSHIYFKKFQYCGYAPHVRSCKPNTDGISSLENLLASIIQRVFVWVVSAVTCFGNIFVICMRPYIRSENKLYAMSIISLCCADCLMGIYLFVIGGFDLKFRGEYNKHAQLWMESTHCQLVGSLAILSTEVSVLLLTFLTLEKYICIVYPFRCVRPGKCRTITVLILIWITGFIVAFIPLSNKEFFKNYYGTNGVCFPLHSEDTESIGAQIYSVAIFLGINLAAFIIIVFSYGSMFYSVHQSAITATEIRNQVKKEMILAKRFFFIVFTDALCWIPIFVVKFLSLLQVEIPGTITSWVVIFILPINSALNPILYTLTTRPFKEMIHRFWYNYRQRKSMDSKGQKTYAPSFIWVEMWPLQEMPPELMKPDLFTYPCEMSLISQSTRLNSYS
Assay: hRXFP1 HEK293 cAMP assay (HTRF)
Format: cell-based
Conditions: HEK293 cells stably expressing human RXFP1; 30 min at rt; intracellular cAMP by HTRF
Method in brief: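 Agonism is measured as cAMP by HTRF, quantified from a standard curve via the 665/590 nm ratio and fitted with a four-parameter logistic equation. Compounds (0.010 nM to 50 μM final, 2% DMSO) were applied for 30 min at rt to human RXFP1-expressing HEK293 cells in assay buffer containing 0.5 mM IBMX.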

Q: For COc1ccc(C2=NOC3CC(NC(=O)C(C)(C)O)CC23)cc1C(=O)Nc1c(C(=O)Nc2ccc(F)c(C(F)(F)F)c2)sc2cc(C(F)(F)F)ccc12 (single isomer, unassigned) [Example 265, N-[4-fluoro-3-(trifluoromethyl)phenyl]-3-{5-[5-(2-hydroxy-2-methyl-propanamido)-3aH,4H,5H,6H, 6aH-cyclopenta[d] [1,2]oxazol-3-yl]-2-methoxy-benzamido}-6-(trifluoromethyl)-1-benzothiophene-2-carboxamide], which EC50 is on record?
A: 1140 nM

Q: How did the EC50 turn out when COc1ccc(C2=NOC3CC(NC(=O)CO)CC23)cc1C(=O)Nc1c(C(=O)Nc2ccc(F)c(C(F)(F)F)c2)sc2cc(C(F)(F)F)ccc12 (single isomer, unassigned) [Example 266, N-[4-fluoro-3-(trifluoromethyl)phenyl]-3-{5-[5-(2-hydroxyacetamido)-3aH,4H,5H,6H, 6aH-cyclopenta[d] [1,2]oxazol-3-yl]-2-methoxy-benzamido}-6-(trifluoromethyl)-1-benzothiophene-2-carboxamide] was run?
A: 2410 nM

Q: With COc1ccc(C2=NOC3CC(NC(=O)C(C)(C)O)CC23)cc1C(=O)Nc1c(C(=O)Nc2ccc(F)c(C(F)(F)F)c2)sc2cc(C(F)(F)F)ccc12 (single isomer, unassigned) [Example 267, N-[4-fluoro-3-(trifluoromethyl)phenyl]-3-{5-[5-(2-hydroxy-2-methyl-propanamido)-3aH,4H,5H,6H, 6aH-cyclopenta[d] [1,2]oxazol-3-yl]-2-methoxy-benzamido}-6-(trifluoromethyl)-1-benzothiophene-2-carboxamide] as the compound, how does the EC50 read?
A: 3130 nM

Q: How did the EC50 turn out when COc1ccc(C2=NOC3CC(CO)CC23)cc1C(=O)Nc1c(C(=O)Nc2ccc(F)c(C(F)(F)F)c2)sc2cc(C(F)(F)F)ccc12 (single isomer, unassigned) [Example 268, N-[4-fluoro-3-(trifluoromethyl)phenyl]-3-{5-[5-(hydroxymethyl)-3aH,4H,5H,6H, 6aH-cyclopenta[d] [1,2]oxazol-3-yl]-2-methoxy-benzamido}-6-(trifluoromethyl)-1-benzothiophene-2-carboxamide] was run?
A: 4.9 nM

Q: For COc1ccc(N2CCCC(NCC(N)=O)C2)cc1C(=O)Nc1c(C(=O)Nc2ccc(F)c(C(F)(F)F)c2)sc2cc(C(F)(F)F)ccc12 (stereo in doubt) [Example 112, (R)-3-(5-(3-((2-amino-2-oxoethyl)amino)piperidin-1-yl)-2-methoxy-benzamido)-N-(4-fluoro-3-(trifluoromethyl)phenyl)-6-(trifluoromethyl) benzo[b] thiophene-2-carboxamide], which EC50 is on record?
A: 593 nM

Q: For COc1ccc(N2CCCC(NCC(N)=O)C2)cc1C(=O)Nc1c(C(=O)Nc2ccc(F)c(C(F)(F)F)c2)sc2cc(C(F)(F)F)ccc12 (stereo in doubt) [Example 210, (S)-3-(5-(3-((2-amino-2-oxoethyl)amino)piperidin-1-yl)-2-methoxy-benzamido)-N-(4-fluoro-3-(trifluoromethyl)phenyl)-6-(trifluoromethyl) benzo[b] thiophene-2-carboxamide], which EC50 is on record?
A: 1930 nM

Q: For COC(=O)C1CN(c2ccc(OC)c(C(=O)Nc3c(C(=O)Nc4ccc(F)c(C(F)(F)F)c4)sc4cc(C(F)(F)F)ccc34)c2)C1 [Example 1, Methyl 1-(3-((2-((4-fluoro-3-(trifluoromethyl)phenyl)carbamoyl)-6-(trifluoromethyl)benzo[b]thiophen-3-yl)carbamoyl)-4-methoxyphenyl)azetidine-3-carboxylate], which EC50 is on record?
A: 631 nM

Q: How did the EC50 turn out when COc1ccc(-n2cc(C(=O)O)cn2)cc1C(=O)Nc1c(C(=O)Nc2ccc(F)c(C(F)(F)F)c2)sc2cc(C(F)(F)F)ccc12 [Example 2, 1-(3-((2-((4-fluoro-3-(trifluoromethyl)phenyl)carbamoyl)-6-(trifluoromethyl)benzo[b]thiophen-3-yl)carbamoyl)-4-methoxyphenyl)-1H-pyrazole-4-carboxylic acid] was run?
A: 2010 nM

Q: COc1ccc(-n2cc(C(C)(C)O)cn2)cc1C(=O)Nc1c(C(=O)Nc2ccc(F)c(C(F)(F)F)c2)sc2cc(C(F)(F)F)ccc12 [Example 3, N-(4-fluoro-3-(trifluoromethyl)phenyl)-3-(5-(4-(2-hydroxypropan-2-yl)-1H-pyrazol-1-yl)-2-methoxybenzamido)-6-(trifluoromethyl) benzo[b]thiophene-2-carboxamide] was tested. Which EC50 did it give?
A: 350 nM

Q: COc1ccc(N2CCCCS2(=O)=O)cc1C(=O)Nc1c(C(=O)Nc2ccc(F)c(C(F)(F)F)c2)sc2cc(C(F)(F)F)ccc12 [Example 10, 3-(5-(1,1-dioxido-1,2-thiazinan-2-yl)-2-methoxybenzamido)-N-(4-fluoro-3-(trifluoromethyl)phenyl)-6-(trifluoromethyl)benzo[b]thiophene-2-carboxamide] was tested. Which EC50 did it give?
A: 111 nM

Q: Which EC50 does the source give for COc1ncc(N2CCCC(CO)C2)cc1C(=O)Nc1c(C(=O)Nc2ccc(F)c(C(F)(F)F)c2)sc2cc(C(F)(F)F)ccc12 (stereo not shown) [Example 11, N-(2-((4-fluoro-3-(trifluoromethyl)phenyl)carbamoyl)-6-(trifluoromethyl)benzo[b]thiophen-3-yl)-5-(3-(hydroxymethyl)piperidin-1-yl)-2-methoxynicotinamide] here?
A: 2540 nM

Q: With COc1ncc(N2CCS(=O)(=O)CC2)cc1C(=O)Nc1c(C(=O)Nc2ccc(F)c(C(F)(F)F)c2)sc2cc(C(F)(F)F)ccc12 [Example 12, 5-(1,1-dioxidothiomorpholino)-N-(2-((4-fluoro-3-(trifluoromethyl)phenyl)carbamoyl)-6-(trifluoromethyl)benzo[b]thiophen-3-yl)-2-methoxynicotinamide] as the compound, how does the EC50 read?
A: 2130 nM

Q: How did the EC50 turn out when COc1ccc(-c2ccc(F)c(C(=O)O)c2)cc1C(=O)Nc1c(C(=O)Nc2ccc(F)c(C(F)(F)F)c2)sc2cc(C(F)(F)F)ccc12 [Example 13, 4-fluoro-3′-((2-((4-fluoro-3-(trifluoromethyl)phenyl)carbamoyl)-6-(trifluoromethyl)benzo[b]thiophen-3-yl)carbamoyl)-4′-methoxy-[1, 1′-biphenyl]-3-carboxylic acid] was run?
A: 87 nM

Q: How did the EC50 turn out when COc1ccc(-c2cccc(C(=O)O)c2F)cc1C(=O)Nc1c(C(=O)Nc2ccc(F)c(C(F)(F)F)c2)sc2cc(C(F)(F)F)ccc12 [Example 14, 2-fluoro-3′-((2-((4-fluoro-3-(trifluoromethyl)phenyl)carbamoyl)-6-(trifluoromethyl)benzo[b]thiophen-3-yl)carbamoyl)-4′-methoxy-[1,1′-biphenyl]-3-carboxylic acid] was run?
A: 135 nM

Q: Which EC50 does the source give for COc1ccc(-c2cc(C(=O)O)ccc2F)cc1C(=O)Nc1c(C(=O)Nc2ccc(F)c(C(F)(F)F)c2)sc2ccccc12 [Example 15, 6-fluoro-3′-((2-((4-fluoro-3-(trifluoromethyl)phenyl)carbamoyl)benzo[b]thiophen-3-yl)carbamoyl)-4′-methoxy-[1, 1′-biphenyl]-3-carboxylic acid] here?
A: 1560 nM

Q: For COc1ccc(-c2cc(CN)ccc2F)cc1C(=O)Nc1c(C(=O)Nc2ccc(F)c(C(F)(F)F)c2)sc2cc(C(F)(F)F)ccc12 [Example 16, 3-(5′-(aminomethyl)-2′-fluoro-4-methoxy-[1,1′-biphenyl]-3-carboxamido)-N-(4-fluoro-3-(trifluoromethyl)phenyl)-6-(trifluoromethyl)benzo[b]thiophene-2-carboxamide], which EC50 is on record?
A: 677 nM

Q: How did the EC50 turn out when COc1ccc(-c2cc(CNS(C)(=O)=O)ccc2F)cc1C(=O)Nc1c(C(=O)Nc2ccc(F)c(C(F)(F)F)c2)sc2cc(C(F)(F)F)ccc12 [Example 17, N-(4-fluoro-3-(trifluoromethyl)phenyl)-3-(2′-fluoro-4-methoxy-5′-(methylsulfonamidomethyl)-[1,1′-biphenyl]-3-carboxamido)-6-(trifluoromethyl)benzo[b]thiophene-2-carboxamide] was run?
A: 10.3 nM

Q: Which EC50 does the source give for COc1ccc(-c2cc(CNC(=O)C3CCC3)ccc2F)cc1C(=O)Nc1c(C(=O)Nc2ccc(F)c(C(F)(F)F)c2)sc2cc(C(F)(F)F)ccc12 [Example 18, 3-(5′-(cyclobutanecarboxamidomethyl)-2′-fluoro-4-methoxy-[1,1′-biphenyl]-3-carboxamido)-N-(4-fluoro-3-(trifluoromethyl)phenyl)-6-(trifluoromethyl)benzo[b]thiophene-2-carboxamide] here?
A: 311 nM

Q: COc1ccc(-c2cc(CNCC(C)C)ccc2F)cc1C(=O)Nc1c(C(=O)Nc2ccc(F)c(C(F)(F)F)c2)sc2cc(C(F)(F)F)ccc12 [Example 19, N-(4-fluoro-3-(trifluoromethyl)phenyl)-3-(2′-fluoro-5′-((isobutylamino)methyl)-4-methoxy-[1,1′-biphenyl]-3-carboxamido)-6-(trifluoromethyl) benzo[b]thiophene-2-carboxamide] was tested. Which EC50 did it give?
A: 1010 nM
